From ChEMBL document CHEMBL2401728, “An unexpected Dimroth rearrangement leading to annelated thieno[3,2-d][1,2,3]triazolo[1,5-a]pyrimidines with potent antitumor activity” (Eur J Med Chem, 2013)

How the values were obtained:
Format in all cases: functional
[1] = system: SR; experiment: Cytotoxicity against human SR cells assessed as cellular growth at 0.1 uM after 48 hrs by SRB assay relative to control
[2] = system: NCI-H522; experiment: Cytotoxicity against human NCI-H522 cells assessed as cellular growth at 100 uM after 48 hrs by SRB assay relative to control
[3] = system: SNB-19; experiment: Cytotoxicity against human SNB19 cells assessed as cellular growth at 0.1 uM after 48 hrs by SRB assay relative to control
[4] = system: HOP-92; experiment: Cytotoxicity against human HOP92 cells assessed as cellular growth at 100 uM after 48 hrs by SRB assay relative to control
[5] = system: SW-620; experiment: Cytotoxicity against human SW620 cells assessed as cellular growth at 0.01 uM after 48 hrs by SRB assay relative to control
[6] = system: SF-539; experiment: Cytotoxicity against human SF539 cells after 48 hrs by SRB assay; details: SF-539, 48 h
[7] = system: SNB-75; experiment: Cytotoxicity against human SNB75 cells assessed as cellular growth at 0.01 uM after 48 hrs by SRB assay relative to control
[8] = system: KM12; experiment: Cytotoxicity against human KM12 cells assessed as cellular growth at 0.1 uM after 48 hrs by SRB assay relative to control
[9] = system: UACC-62; experiment: Cytotoxicity against human UACC62 cells assessed as cellular growth at 0.01 uM after 48 hrs by SRB assay relative to control
[10] = system: SK-MEL-5; experiment: Cytotoxicity against human SK-MEL-5 cells assessed as cellular growth at 0.1 uM after 48 hrs by SRB assay relative to control
[11] = system: 786-0; experiment: Cytotoxicity against human 786-0 cells assessed as cellular growth at 0.01 uM after 48 hrs by SRB assay relative to control
[12] = system: HL-60(TB); experiment: Cytotoxicity against human HL-60(TB) cells assessed as cellular growth at 0.1 uM after 48 hrs by SRB assay relative to control
[13] = system: SF-295; experiment: Cytotoxicity against human SF295 cells assessed as cellular growth at 0.01 uM after 48 hrs by SRB assay relative to control
[14] = system: SF-268; experiment: Cytotoxicity against human SF268 cells assessed as cellular growth at 1 uM after 48 hrs by SRB assay relative to control
[15] = system: A498; experiment: Cytotoxicity against human A498 cells assessed as cellular growth at 100 uM after 48 hrs by SRB assay relative to control
[16] = system: U-251; experiment: Cytotoxicity against human U251 cells assessed as cellular growth at 0.01 uM after 48 hrs by SRB assay relative to control
[17] = system: UO-31; experiment: Cytotoxicity against human UO31 cells after 48 hrs by SRB assay; details: UO-31, 48 h
[18] = system: UO-31; experiment: Cytotoxicity against human UO31 cells assessed as cellular growth at 100 uM after 48 hrs by SRB assay relative to control
[19] = system: SN12C; experiment: Cytotoxicity against human SN12C cells assessed as cellular growth at 0.01 uM after 48 hrs by SRB assay relative to control
[20] = system: MDA-MB-231; experiment: Cytotoxicity against human MDA-MB-231 cells assessed as cellular growth at 0.1 uM after 48 hrs by SRB assay relative to control
[21] = system: IGROV-1; experiment: Cytotoxicity against human IGROV1 cells assessed as cellular growth at 1 uM after 48 hrs by SRB assay relative to control
[22] = system: SK-OV-3; experiment: Cytotoxicity against human SKOV3 cells assessed as cellular growth at 1 uM after 48 hrs by SRB assay relative to control
[23] = system: SF-268; experiment: Cytotoxicity against human SF268 cells after 48 hrs by SRB assay; details: SF-268, 48 h
[24] = system: K562; experiment: Cytotoxicity against human K562 cells assessed as cellular growth at 0.1 uM after 48 hrs by SRB assay relative to control
[25] = system: MDA-MB-231; experiment: Cytotoxicity against human MDA-MB-231 cells assessed as cellular growth at 0.01 uM after 48 hrs by SRB assay relative to control
[26] = system: M14; experiment: Cytotoxicity against human M14 cells assessed as cellular growth at 0.01 uM after 48 hrs by SRB assay relative to control
[27] = system: LOX IMVI; experiment: Cytotoxicity against human LOXIMVI cells assessed as cellular growth at 0.1 uM after 48 hrs by SRB assay relative to control
[28] = system: A498; experiment: Cytotoxicity against human A498 cells assessed as cellular growth at 1 uM after 48 hrs by SRB assay relative to control
[29] = system: OVCAR-3; experiment: Cytotoxicity against human OVCAR3 cells assessed as cellular growth at 100 uM after 48 hrs by SRB assay relative to control
[30] = system: SF-295; experiment: Cytotoxicity against human SF295 cells assessed as cellular growth at 1 uM after 48 hrs by SRB assay relative to control
[31] = system: SK-MEL-28; experiment: Cytotoxicity against human SK-MEL-28 cells assessed as cellular growth at 1 uM after 48 hrs by SRB assay relative to control
[32] = system: Malme-3M; experiment: Cytotoxicity against human MALME-3M cells assessed as cellular growth at 1 uM after 48 hrs by SRB assay relative to control
[33] = system: SK-MEL-5; experiment: Cytotoxicity against human SK-MEL-5 cells after 48 hrs by SRB assay; details: SK-MEL-5, 48 h
[34] = system: NCI-H460; experiment: Cytotoxicity against human NCI-H460 cells after 48 hrs by SRB assay; details: NCI-H460, 48 h
[35] = system: ACHN; experiment: Cytotoxicity against human ACHN cells assessed as cellular growth at 100 uM after 48 hrs by SRB assay relative to control
[36] = system: SK-MEL-28; experiment: Cytotoxicity against human SK-MEL-28 cells assessed as cellular growth at 0.01 uM after 48 hrs by SRB assay relative to control
[37] = system: U-251; experiment: Cytotoxicity against human U251 cells assessed as cellular growth at 0.1 uM after 48 hrs by SRB assay relative to control
[38] = system: DU-145; experiment: Cytotoxicity against human DU145 cells assessed as cellular growth at 0.1 uM after 48 hrs by SRB assay relative to control
[39] = read-out: LC50 (the source's name)
[40] = read-out: pLC50 (the source's name) (converted)

Compound: O=C(CCCn1c2c(sc3ccccc32)c(=O)n2nnc(-c3ccccc3)c12)NCCc1c[nH]cn1
- Activity [1]: 85%
- Activity [2]: -25%
- Activity [3]: 65%
- Activity [4]: -50%
- Activity [5]: 63%
- GI50 ([6]; read-out: GI50): 20.6 nM
- CC50 [6, 39]: 3.14 µM
- TGI ([6]; read-out: TGI): 122 nM
- GI50 ([6]; read-out: pGI50 (converted)): 20.4 nM
- CC50 [6, 40]: 3.16 µM
- TGI ([6]; read-out: pTGI (converted)): 123 nM
- Activity [7]: 103%
- Activity [8]: 62%
- Activity [9]: 99%
- Activity [10]: 90%
- Activity [11]: 98%
- Activity [12]: 43%
- Activity [13]: 101%
- Activity [14]: 79%
- Activity [15]: -97%
- Activity [16]: 78%
- GI50 ([17]; read-out: GI50): 1300 nM
- CC50 [17, 39]: 5.22 µM
- TGI ([17]; read-out: TGI): 2610 nM
- GI50 ([17]; read-out: pGI50 (converted)): 1290 nM
- CC50 [17, 40]: 5.25 µM
- TGI ([17]; read-out: pTGI (converted)): 2630 nM
- Activity [18]: -61%
- Activity [19]: 50%
- Activity [20]: 109%
- Activity [21]: 41%
- Activity [22]: 84%
- GI50 ([23]; read-out: GI50): 1540 nM
- CC50 [23, 39]: 6.7 µM
- TGI ([23]; read-out: TGI): 3.21 µM
- GI50 ([23]; read-out: pGI50 (converted)): 1550 nM
- CC50 [23, 40]: 6.76 µM
- TGI ([23]; read-out: pTGI (converted)): 3.24 µM
- Activity [24]: 23%
- Activity [25]: 115%
- Activity [26]: 108%
- Activity [27]: 89%
- Activity [28]: 55%
- Activity [29]: -100%
- Activity [30]: 39%
- Activity [31]: 92%
- Activity [32]: 81%
- GI50 ([33]; read-out: GI50): 2020 nM
- CC50 [33, 39]: 33.2 µM
- TGI ([33]; read-out: TGI): 11 µM
- GI50 ([33]; read-out: pGI50 (converted)): 2040 nM
- CC50 [33, 40]: 33.1 µM
- TGI ([33]; read-out: pTGI (converted)): 11 µM
- GI50 ([34]; read-out: GI50): 1590 nM
- TGI ([34]; read-out: TGI): 3.95 µM
- GI50 ([34]; read-out: pGI50 (converted)): 1580 nM
- TGI ([34]; read-out: pTGI (converted)): 3.98 µM
- Activity [35]: -100%
- Activity [36]: 117%
- Activity [37]: 54%
- Activity [38]: 87%

Compound: CN1CCN(CCCn2c3c(sc4ncccc43)c(=O)n3nnc(-c4ccccc4)c23)CC1
- Activity [1]: 104%
- Activity [2]: -35%
- Activity [3]: 96%
- Activity [4]: -67%
- Activity [5]: 96%
- GI50 ([6]; read-out: GI50): 1710 nM
- CC50 [6, 39]: 6.54 µM
- TGI ([6]; read-out: TGI): 3340 nM
- GI50 ([6]; read-out: pGI50 (converted)): 1700 nM
- CC50 [6, 40]: 6.61 µM
- TGI ([6]; read-out: pTGI (converted)): 3310 nM
- Activity [7]: 76%
- Activity [8]: 94%
- Activity [9]: 91%
- Activity [10]: 92%
- Activity [11]: 103%
- Activity [12]: 91%
- Activity [13]: 106%
- Activity [14]: 83%
- Activity [15]: -92%
- Activity [16]: 97%
- GI50 ([17]; read-out: GI50): 1030 nM
- CC50 [17, 39]: 5.94 µM
- TGI ([17]; read-out: TGI): 2470 nM
- GI50 ([17]; read-out: pGI50 (converted)): 1020 nM
- CC50 [17, 40]: 5.89 µM
- TGI ([17]; read-out: pTGI (converted)): 2450 nM
- Activity [18]: -87%
- Activity [19]: 97%
- Activity [20]: 100%
- Activity [21]: 94%
- Activity [22]: 106%
- GI50 ([23]; read-out: GI50): 1610 nM
- CC50 [23, 39]: 6.81 µM
- TGI ([23]; read-out: TGI): 3.31 µM
- GI50 ([23]; read-out: pGI50 (converted)): 1620 nM
- CC50 [23, 40]: 6.76 µM
- TGI ([23]; read-out: pTGI (converted)): 3.31 µM
- Activity [24]: 98%
- Activity [25]: 100%
- Activity [26]: 97%
- Activity [27]: 88%
- Activity [28]: 76%
- Activity [29]: -84%
- Activity [30]: 103%
- Activity [31]: 99%
- Activity [32]: 105%
- GI50 ([33]; read-out: GI50): 1700 nM
- CC50 [33, 39]: 5.81 µM
- TGI ([33]; read-out: TGI): 3.14 µM
- GI50 ([33]; read-out: pGI50 (converted)): 1700 nM
- CC50 [33, 40]: 5.75 µM
- TGI ([33]; read-out: pTGI (converted)): 3.16 µM
- GI50 ([34]; read-out: GI50): 1920 nM
- CC50 [34, 39]: 8.13 µM
- TGI ([34]; read-out: TGI): 3.95 µM
- GI50 ([34]; read-out: pGI50 (converted)): 1910 nM
- CC50 [34, 40]: 8.13 µM
- TGI ([34]; read-out: pTGI (converted)): 3.98 µM
- Activity [35]: -80%
- Activity [36]: 100%
- Activity [37]: 100%
- Activity [38]: 98%
